Source: PMC6913882 (ACS chemical biology, 2018)
Where two headings read alike, the source gives them in different places.

Assays:
Type in all cases: binding
[1] = biological target: T1, DNA methyltransferase-1 (mDNMT1) (Mus musculus, UniProt P13864, N1248A); assay: crystal structure at […] Å
[2] = biological target: T2, DNA methyltransferase-1 (mDNMT1) (Mus musculus, UniProt P13864); assay: SPR
[3] = biological target: T1, DNA methyltransferase-1 (mDNMT1); assay: SPR
[4] = biological target: T2, DNA methyltransferase-1 (mDNMT1); assay: SPR; remark: listed apart in the source
[5] = biological target: DNA methyltransferase-1 (mDNMT1) (Mus musculus, UniProt P13864, R1279D); assay: SPR
Chain of DNA methyltransferase-1 (mDNMT1) (Mus musculus, UniProt P13864, R1279D) (P13864 731-1602 R1279D): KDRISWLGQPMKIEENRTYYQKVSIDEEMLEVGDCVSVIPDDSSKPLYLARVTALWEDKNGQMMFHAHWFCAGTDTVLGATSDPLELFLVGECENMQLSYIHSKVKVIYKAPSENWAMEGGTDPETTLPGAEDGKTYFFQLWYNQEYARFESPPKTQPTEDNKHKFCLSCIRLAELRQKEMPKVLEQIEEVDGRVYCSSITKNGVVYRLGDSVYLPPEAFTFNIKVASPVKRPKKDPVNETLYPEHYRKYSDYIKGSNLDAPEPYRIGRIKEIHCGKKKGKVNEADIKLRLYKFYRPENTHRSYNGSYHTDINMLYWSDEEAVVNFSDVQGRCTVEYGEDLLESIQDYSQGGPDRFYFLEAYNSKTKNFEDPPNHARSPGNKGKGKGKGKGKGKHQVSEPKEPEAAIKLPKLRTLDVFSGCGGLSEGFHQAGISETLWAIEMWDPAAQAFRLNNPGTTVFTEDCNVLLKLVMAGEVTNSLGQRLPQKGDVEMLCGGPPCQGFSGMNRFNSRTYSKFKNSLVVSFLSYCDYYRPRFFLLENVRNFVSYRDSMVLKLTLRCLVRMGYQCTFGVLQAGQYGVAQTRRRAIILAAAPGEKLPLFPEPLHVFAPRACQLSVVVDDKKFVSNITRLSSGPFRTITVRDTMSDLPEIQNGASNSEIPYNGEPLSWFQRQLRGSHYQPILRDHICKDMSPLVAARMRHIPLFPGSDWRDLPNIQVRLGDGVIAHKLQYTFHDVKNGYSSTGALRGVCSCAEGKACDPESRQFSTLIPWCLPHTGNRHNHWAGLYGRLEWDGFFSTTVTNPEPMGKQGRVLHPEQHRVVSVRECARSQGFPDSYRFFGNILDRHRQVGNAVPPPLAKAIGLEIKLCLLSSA

T2 sequence (P13864 731-1602): as the sequence (P13864 731-1602 R1279D) above, with D549R counted along it
T1 sequence (P13864 731-1602 N1248A): as the sequence (P13864 731-1602 R1279D) above, with N518A, D549R counted along it

| SMILES | Kd [1] | Kd [2] [µM] | Kd [3] [µM] | Kd [4] [µM] | Kd [5] [µM] |
| --- | --- | --- | --- | --- | --- |
| Nc1ncnc2c1ncn2[C@@H]1O[C@H](CSCC[C@H](N)C(=O)O)[C@@H](O)[C@H]1O [AdoHcy] | The N1248A mutant was bound to AdoHcy (Figure S5A) | ~0.47 | – | – | – |
| C[S+](CC[C@H](N)C(=O)[O-])C[C@H]1O[C@@H](n2cnc3c(N)ncnc32)[C@H](O)[C@@H]1O (some centres unmarked) [AdoMet] | – | – | 6.61 | ~5.75 | 3.78 |
